Experimental data taken from the NIST ThermoML archive (doi:10.1021/je900715y).
Numbers after ± are expanded uncertainties.

Experiments:
[1] = 101.3 kPa, Liquid
[2] = xn = mol fraction of the nth substance listed; conditions: 101.3 kPa, Liquid, x2 = 0

| mass density ([1]; 288.15 K) [kg/m3] | mass density ([1]; 293.15 K) [kg/m3] | mass density ([1]; 298.15 K) [kg/m3] | mass density ([1]; 303.15 K) [kg/m3] | mass density ([1]; 308.15 K) [kg/m3] | mass density ([1]; 313.15 K) [kg/m3] | mass density ([1]; 318.15 K) [kg/m3] | mass density ([1]; 323.15 K) [kg/m3] | mass density ([2]; 288.15 K) [kg/m3] | mass density ([2]; 293.15 K) [kg/m3] | mass density ([2]; 298.15 K) [kg/m3] | mass density ([2]; 303.15 K) [kg/m3] | mass density ([2]; 308.15 K) [kg/m3] | mass density ([2]; 313.15 K) [kg/m3] | mass density ([2]; 318.15 K) [kg/m3] | mass density ([2]; 323.15 K) [kg/m3] | Compound |
| --- | --- | --- | --- | --- | --- | --- | --- | --- | --- | --- | --- | --- | --- | --- | --- | --- |
| 810.689 ± 0.55 | 806.646 ± 0.56 | 802.528 ± 0.56 | 798.326 ± 0.57 | 794.03 ± 0.57 | 789.632 ± 0.58 | 785.117 ± 0.58 | 780.515 ± 0.59 | – | – | – | – | – | – | – | – | CCC(C)O (centres undefined) [butan-2-ol] |
| 687.954 ± 0.64 | 683.733 ± 0.64 | 679.494 ± 0.65 | 675.229 ± 0.66 | 670.941 ± 0.66 | 666.621 ± 0.67 | 662.273 ± 0.68 | 657.896 ± 0.68 | – | – | – | – | – | – | – | – | CCCCCCC [heptane] |
| – | – | – | – | – | – | – | – | 687.954 ± 0.64 | 683.733 ± 0.64 | 679.494 ± 0.65 | 675.229 ± 0.66 | 670.941 ± 0.66 | 666.621 ± 0.67 | 662.273 ± 0.68 | 657.896 ± 0.68 | CCCCCCC [heptane] + CCC(C)O |
